Measurements taken from ChEMBL document CHEMBL1201862, “PubChem BioAssay data set” (2004).
Calls of active or inactive are those of the source. The rule behind the calls is not given here.

What was measured:
[1] = molecular target: T1, High affinity choline transporter 1 (Homo sapiens, UniProt Q9GZV3); assay: human choline transporter blockers, potency – cell-based, 10-point CRC, membrane potential dye, dose response (AID 588401); assay type: functional;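 note: membrane potential dye fluorescence of choline-evoked depolarization via CHT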
T1 sequence (Q9GZV3 whole entry): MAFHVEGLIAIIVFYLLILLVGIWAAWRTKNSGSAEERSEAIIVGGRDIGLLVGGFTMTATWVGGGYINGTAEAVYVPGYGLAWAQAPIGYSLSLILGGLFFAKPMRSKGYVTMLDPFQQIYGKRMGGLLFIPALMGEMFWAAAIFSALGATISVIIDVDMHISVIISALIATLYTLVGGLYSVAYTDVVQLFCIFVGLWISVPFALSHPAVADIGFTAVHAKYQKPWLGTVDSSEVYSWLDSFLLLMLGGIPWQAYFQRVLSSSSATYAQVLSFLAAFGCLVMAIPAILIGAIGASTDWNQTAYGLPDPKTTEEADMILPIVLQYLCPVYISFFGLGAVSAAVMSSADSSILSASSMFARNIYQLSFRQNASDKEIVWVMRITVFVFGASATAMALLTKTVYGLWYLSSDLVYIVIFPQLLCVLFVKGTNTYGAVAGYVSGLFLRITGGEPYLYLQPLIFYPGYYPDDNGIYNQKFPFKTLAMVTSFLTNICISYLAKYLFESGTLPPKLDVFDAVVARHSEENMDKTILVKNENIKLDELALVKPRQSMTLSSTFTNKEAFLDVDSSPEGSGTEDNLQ

[2] = molecular target: T1, High affinity choline transporter 1; assay: human choline transporter blockers, potency – cell-based, 5-point CRC, membrane potential dye, dose response (AID 504840); assay type: functional

## Cc1cc(C)c(C(=O)Nc2ccc(S(=O)(=O)Nc3ccccn3)cc2)c(C)c1
[1]
  IC50: 2.7 µM (active)
[2]
  IC50: 4.07 µM (active)
